Test results from paper PMC11211329, “Phage-encoded bismuth bicycles enable instant access to targeted bioactive peptides” (Communications Chemistry, 2024).
Several values for one entry are separate records, joined by “and”; a condition that tells them apart may be missing. Identical values can stand only once. Like-named read-outs stand apart in the source and are kept apart here. Peptide text beside a SMILES is read from it.

Target: T1, streptavidin (Streptomyces avidinii, UniProt P22629)
T1 construct: purchased New England Biolabs
T1 sequence (P22629 25-183): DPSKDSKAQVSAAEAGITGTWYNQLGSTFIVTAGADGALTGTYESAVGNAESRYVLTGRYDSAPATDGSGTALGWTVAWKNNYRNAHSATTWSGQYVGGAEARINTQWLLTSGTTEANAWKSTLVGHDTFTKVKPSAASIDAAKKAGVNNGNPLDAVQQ
Test: biochemical
Format: binding
Details: for more active than linear counterpart: ratio of KD, bicycle vs linear peptide
Method: SPR measurements were performed with 20 mM HEPES–KOH pH 7.4, 150 mM NaCl, 0.5 mM TCEP, 0.05% (v/v) polysorbate 20 as running buffer. For each experiment, 100–150 μg streptavidin in 10 mM sodium acetate pH 3.9 buffer was freshly immobilised on a sensor chip flow-cell using EDC/NHS chemistry at 25 °C in absence of TCEP. All binding experiments were conducted at 20 °C in single-cycle kinetics mode (Fig. 4, Supplementary Figs. 17, 18, Supplementary Data 2).
SPR experiments were performed on a Biacore 8K (Cytiva, USA) using a CM5 chip (Cytiva, 29104988, USA), onto which streptavidin (New England Biolabs, USA) was freshly immobilised using an amine coupling kit (Cytiva, USA) for each individual experiment. The instrument was operated using Biacore Insight 5 software (Cytiva, USA). The data were plotted and analysed in GraphPad Prism 10 (Dotmatics, USA) using the non-linear fit ‘one site – specific binding’ (Supplementary Equation 2). KD values of duplicate measurements are represented as the mean value ± standard deviation.
Supplementary Equation 2.
X = analyte concentration [µM]
RUmax = maximum response [RU]
KD = dissociation constant [µM]

| Structure (SMILES) | Kd [µM] | affinity towards streptavidin (in words) (SPR) | Response (SPR, 0.390625 μM peptide) | Response (SPR, 0.78125 μM peptide) | Response (SPR, 1.5625 μM peptide) | Response (SPR, 3.125 μM peptide) | Response (SPR, 6.25 μM peptide) | Response (SPR, 12.5 μM peptide) | Response (SPR, 25 μM peptide) | Response (SPR, 50 μM peptide) | Response (SPR, 100 μM peptide) | other results |
| --- | --- | --- | --- | --- | --- | --- | --- | --- | --- | --- | --- | --- |
| C[C@H](N)C(=O)N[C@H]1CS[As]2SC[C@@H](C(N)=O)NC(=O)[C@H](C)NC(=O)[C@@H]3CCCN3C(=O)[C@H](CCC(=O)O)NC(=O)[C@H]([C@@H](C)O)NC(=O)[C@H](CS2)NC(=O)[C@H](CC(N)=O)NC(=O)[C@H](CCC(N)=O)NC(=O)[C@@H]2CCCN2C(=O)[C@H](Cc2c[nH]cn2)NC1=O [3a] | 11.7 | micromolar affinity | 3.2004 RU and 3.5032 RU | 4.9583 RU and 6.3102 RU | 9.0442 RU and 11.2377 RU | 17.2093 RU and 20.7499 RU | 31.5997 RU and 35.2522 RU | 49.5222 RU and 52.7774 RU | 65.4485 RU and 68.0889 RU | 75.5589 RU and 77.8751 RU | – | more active than linear counterpart: approximately 80 times |
| CC(C)[C@@H]1NC(=O)[C@H](CCC(N)=O)NC(=O)[C@@H]2CCCN2C(=O)[C@H](Cc2c[nH]cn2)NC(=O)[C@@H](NC(=O)[C@H](C)N)C[S][Bi]2[S]C[C@@H](C(N)=O)NC(=O)[C@H](CCC(=O)O)NC(=O)[C@H]([C@@H](C)O)NC(=O)[C@@H]3CCCN3C(=O)[C@H](CO)NC(=O)[C@H](C[S]2)NC1=O [4b] | – | two-digit micromolar dissociation constants | – | 5.1388 RU | 8.1368 RU | 20.2314 RU | 72.2878 RU | 222.296 RU | 413.089 RU | 508.05 RU | 531.655 RU | Response (SPR, 200 μM peptide): 538.328 RU |
| CC(C)[C@@H]1NC(=O)[C@H](CCC(N)=O)NC(=O)[C@@H]2CCCN2C(=O)[C@H](Cc2c[nH]cn2)NC(=O)[C@@H](NC(=O)[C@H](C)N)CS[As]2SC[C@@H](C(N)=O)NC(=O)[C@H](CCC(=O)O)NC(=O)[C@H]([C@@H](C)O)NC(=O)[C@@H]3CCCN3C(=O)[C@H](CO)NC(=O)[C@H](CS2)NC1=O [4a] | 42.8 ± 3.5 | micromolar affinity | 3.3313 RU and 3.9342 RU | 3.4046 RU and 4.4109 RU | 4.0632 RU and 5.3459 RU | 6.3333 RU and 7.9821 RU | 11.621 RU and 13.3151 RU | 22.2246 RU and 23.8712 RU | 39.0098 RU and 40.7076 RU | 57.9196 RU and 59.6228 RU | 73.3509 RU and 75.0552 RU | – |
| C[C@H](N)C(=O)N[C@@H](CS)C(=O)N1CCC[C@H]1C(=O)N[C@@H](Cc1c[nH]cn1)C(=O)N1CCC[C@H]1C(=O)N[C@@H](CCC(N)=O)C(=O)N[C@@H](CS)C(=O)N[C@@H](CCC(=O)O)C(=O)N[C@@H](C)C(=O)N[C@@H](C)C(=O)N[C@@H](C)C(=O)N[C@@H](CS)C(N)=O [compound 2] (H-ACPHPQCEAAAC-NH2) | 1520 | – | – | – | – | – | – | – | – | – | – | affinity of linear versus bicyclic peptide (in words) (SPR): two orders of magnitude lower affinity; Response (SPR, 15.625 μM peptide): 3.2958 RU; Response (SPR, 31.25 μM peptide): 3.9468 RU; Response (SPR, 62.5 μM peptide): 5.3014 RU; Response (SPR, 125 μM peptide): 8.119 RU; Response (SPR, 250 μM peptide): 13.0777 RU; Response (SPR, 500 μM peptide): 20.3557 RU; Response (SPR, 1000 μM peptide): 32.6253 RU; Response (SPR, 2000 μM peptide): 47.8172 RU; Response (SPR, 4000 μM peptide): 62.2756 RU |
| CSCC[C@@H]1NC(=O)[C@@H]2CCCN2C(=O)[C@H](Cc2c[nH]cn2)NC(=O)[C@H](CO)NC(=O)[C@@H](NC(=O)[C@H](C)N)C[S][Bi]2[S]C[C@@H](C(N)=O)NC(=O)[C@@H]3CCCN3C(=O)[C@H](Cc3ccccc3)NC(=O)CNC(=O)[C@H](CCC(=O)O)NC(=O)[C@H](C[S]2)NC1=O [1b] | – | micromolar affinity | 6.1348 RU and 7.3042 RU | 7.9335 RU and 9.6048 RU | 11.7844 RU and 13.9912 RU | 18.5476 RU and 21.5419 RU | 29.9992 RU and 34.3112 RU | 48.2716 RU and 55.717 RU | 75.0467 RU and 86.4584 RU | 95.3416 RU and 109.542 RU | 110.889 RU and 126.3 RU | – |
| C[C@H](N)C(=O)N[C@H]1C[S][Bi]2[S]C[C@@H](C(N)=O)NC(=O)[C@H](C)NC(=O)[C@H](C)NC(=O)[C@H](C)NC(=O)[C@H](CCC(=O)O)NC(=O)[C@H](C[S]2)NC(=O)[C@H](CCC(N)=O)NC(=O)[C@@H]2CCCN2C(=O)[C@H](Cc2c[nH]cn2)NC(=O)[C@@H]2CCCN2C1=O [2b] | – | micromolar affinity | 13.0345 RU and 9.7931 RU | 13.307 RU and 10.0327 RU | 13.7466 RU and 10.2315 RU | 15.583 RU and 11.4763 RU | 24.2151 RU and 19.0135 RU | 41.2334 RU and 33.5268 RU | 50.6436 RU and 38.7895 RU | 52.9652 RU and 37.872 RU | 63.2365 RU and 47.0629 RU | Kd (SPR, 20 °C, single-cycle kinetics, 1b, 2b, 3a, 4a n = 2 (mean ± SD), 2, 3, 3b, 4b n = 1): 7.4 µM; more active than linear counterpart: approximately 200 times |
| C[C@H](N)C(=O)N[C@@H](CS)C(=O)N[C@@H](Cc1c[nH]cn1)C(=O)N1CCC[C@H]1C(=O)N[C@@H](CCC(N)=O)C(=O)N[C@@H](CC(N)=O)C(=O)N[C@@H](CS)C(=O)N[C@H](C(=O)N[C@@H](CCC(=O)O)C(=O)N1CCC[C@H]1C(=O)N[C@@H](C)C(=O)N[C@@H](CS)C(N)=O)[C@@H](C)O [compound 3] (H-ACHPQNCTEPAC-NH2) | 927 | – | – | – | – | – | – | – | – | – | – | affinity of linear versus bicyclic peptide (in words) (SPR): two orders of magnitude lower affinity; Response (SPR, 11.7188 μM peptide): 4.8115 RU; Response (SPR, 23.4375 μM peptide): 6.9877 RU; Response (SPR, 46.875 μM peptide): 10.9154 RU; Response (SPR, 93.75 μM peptide): 18.7272 RU; Response (SPR, 187.5 μM peptide): 34.0455 RU; Response (SPR, 375 μM peptide): 61.2377 RU; Response (SPR, 750 μM peptide): 109.838 RU; Response (SPR, 1500 μM peptide): 163.522 RU; Response (SPR, 3000 μM peptide): 172.646 RU |
| C[C@H](N)C(=O)N[C@H]1C[S][Bi]2[S]C[C@@H](C(N)=O)NC(=O)[C@H](C)NC(=O)[C@@H]3CCCN3C(=O)[C@H](CCC(=O)O)NC(=O)[C@H]([C@@H](C)O)NC(=O)[C@H](C[S]2)NC(=O)[C@H](CC(N)=O)NC(=O)[C@H](CCC(N)=O)NC(=O)[C@@H]2CCCN2C(=O)[C@H](Cc2c[nH]cn2)NC1=O [3b] | – | two-digit micromolar dissociation constants | – | 7.812 RU | 10.9116 RU | 21.8994 RU | 58.4112 RU | 130.364 RU | 206.319 RU | 242.538 RU | 254.246 RU | Response (SPR, 200 μM peptide): 258.218 RU |
